In patent US20160374944A1, “COMPOSITIONS AND METHODS FOR TREATING AND PREVENTING CANCER BY TARGETING AND INHIBITING CANCER STEM CELLS” (priority 2011, published 2016):

How the values were obtained:
Pancreatic CSCs [1] = experiment: cell viability, trypan blue, Vi-CELL analyzer; assay type: cell-based, human
Method: Pancreatic CSCs were treated with resveratrol (0-20 μM), curcumin (0-20 μM), honokiol (0-20 μM) and diallyl trisulphide (0-20 μM) for 3 days, and cell viability was measured by staining with trypan blue using Vi-CELL analyzer (Beckman Counter).
Pancreatic CSCs were treated with sulforaphane (0-20 μM), rottlerin (0-2 μM), EGCG (0-60 μM) and embelin (0-5 μM) for 3 days, and cell viability was measured by staining with trypan blue using Vi-CELL analyzer (Beckman Counter).
(§1) (A) Pancreatic CSCs were treated with SAHA (3 and 5 μM) and 5-Aza-dc (2 and 4 μM) and cell viability was measured at 48 h by staining with trypan blue using Vi-CELL analyzer (Beckman Counter). (B) Pancreatic CSCs were untreated (a) or treated with SAHA (b) or 5-Aza-dC (c) for 48 h, and apoptosis was measured by staining with annexin-PI using Accuri Flow Cytometer. (C) Caspase-3/7 activity was measured in pancreatic CSCs treated with SAHA (0.5 and 2 μM) or 5-Aza-dC (1 and 3 μM) for 25 h.
Pancreatic CSCs were treated with resveratrol (0-20 μM), curcumin (0-20 μM), honokiol (0-20 μM), and diallyl trisulphide (0-20 μM) for 3 days and cell viability was measured by staining with trypan blue using Vi-CELL analyzer. The results of those studies are illustrated in FIG. 27.
Pancreatic CSCs were treated with sulforaphane (0-20 μM), rottlerin (0-2 μM), EGCG (0-60 μM), and embelin (0-5 μM) for 3 days and cell viability was measured by staining with trypan blue using Vi-CELL analyzer. The results of those studies are illustrated in FIG. 28.
Pancreatic CSCs were treated with SAHA […] Vorinostat (3 and 5 μM) and 5-Aza-2′-deoxycytidine (5-Aza-dC, 2 and 4 μM) and cell viability was measured at 48 hours by staining with trypan blue using Vi-CELL analyzer. The results of those studies are illustrated in FIG. 31A.

Pancreatic CSCs [2] = experiment: apoptosis; assay type: cell-based, human; details: 48 h, annexin-PI, flow cytometer
Method: (A and B) Induction of apoptosis and activation of caspase-3/-7. Pancreatic CSCs were treated with rottlerin (0-2 μM) for 48 h, and apoptosis and caspase-3/-7 activity were measured by […] and colorometric assay, respectively. […] (C) Pancreatic CSCs were treated with rottlerin (0-1 μM) for 48 h, and the expression of Bcl-2, XIAP and Survivin was measured by qRT-PCR and normalized to GAPDH.
as §1
(A) Regulation of caspase-3/7 activity by EGCG. CSCs were treated with EGCG (0-60 μM) for 24 h, and caspase-3/7 activity was measured as per manufacturer's instructions. […] (B) Regulation of apoptosis by EGCG. CSCs were treated with EGCG (0-60 μM) for 48 h, and apoptosis was measured by TUNEL assay. […] (C) Regulation of apoptosis-related proteins. Pancreatic CSCs were treated with EGCG (0-60 μM) for 36 h. Real time PCR (q-RT-PCR) was performed to examine the expression of Bcl-2, survivin, XIAP, and GAPDH.
FIG. 42A and FIG. 42B show graphs showing quercetin synergizes with EGCG to inhibit self-renewal capacity, invasion, migration, and TCF/LEF and Gli transcriptional activities in pancreatic CSCs. (A) Effects of EGCG and quercetin on spheroid and colony formation. Upper Panel, uercetin synergizes with EGCG to inhibit spheroid's cell viability. CSCs were seeded in suspension and treated with EGCG (0-60 μM) with or without quercetin (20 μM) for 7 days. At the end of incubation period, all the spheroids were collected and resuspended. Cell viability was measured by trypan blue assay. […] Lower panel, uercetin synergizes with EGCG to inhibit colony formation. Pancreatic CSCs were seeded in soft agar and treated with various doses of EGCG (0-60 μM) with or without quercetin (20 μM) and incubated at […] for 21 days. At the end of incubation period, colonies were counted. […] (B) Effects of EGCG and quercetin on invasion and migration. Upper panel, Matrigel invasion assay. CSCs were plated onto the Matrigel-coated membrane in the top chamber of the transwell and treated with EGCG (0-60 μM) with or without quercetin (20 μM) for 48 hrs. Cells invaded to the lower chambered were fixed with methanol, stained with crystal violet and counted. […] Lower panel, Transwell migration assay. Pancreatic CSCs were plated in the top chamber of the transwell and treated with EGCG (0-60 μM) with or without quercetin (20 μM) for 48 hrs. Cells migrated to the lower chambered were fixed with methanol, stained with crystal violet and counted. […] (C) Quercetin synergizes with EGCG to induce apoptosis. CSCs were seeded in suspension and treated with EGCG (0-60 μM) with or without quercetin (20 μM) for 7 days. At the end of incubation period, all the spheroids were collected. Apoptosis was measured by TUNEL assay. […] (D) Effects of EGCG and quercetin on TCF/LEF and Gli transcriptional activities. Pancreatic CSCs were transduced with either lentivirus encoding TCF/LEF responsive GFP and luciferase genes or Gli-responsive GFP and luciferase genes. Transduced CSCs were treated with EGCG (40 μM) with or without quercetin (20 μM) for 48 hrs and the luciferase activity was measured.
Pancreatic CSCs were (a) untreated, (b) treated with SAHA, or (c) treated with 5-Aza-dC for 48 hours and apoptosis was measured by staining with annexin-PI using Accuri Flow Cytometer. The results of those studies are illustrated in FIG. 31B.

Breast CSCs = experiment: cell viability by XTT assay; assay type: cell-based; details: 3 days
Method: Breast CSCs were seeded in 96-well plate and treated with sulforaphane, diallyl trisulphide, resveratrol and curcumin for 3 days. At the end of incubation period, CSCs were harvested and cell viability was measured by XTT assay.
Breast CSCs were seeded in 96-well plate and treated with rottlerin, EGCG, embelin, and honokiol for 3 days. At the end of incubation period, breast CSCs were harvested and cell viability was measured by XTT assay.
(A-D) Breast CSCs were treated with PITC (0-20 μM), BSC, (0-20 μM), sulforaphane (0-20 μM) and honokiol (0-10 μM) for 3 days, and cell viability was measured by XTT assay.
Breast CSCs were treated with rottlerin (0-1 μM) for 3 days, and cell viability was measured by XTT assay.
Breast CSCs were seeded in 96-well plate and treated with sulforaphane, diallyl trisulphide, resveratrol, and curcumin for 3 days and cell viability was measured by XTT assay. The results of those studies are illustrated in FIG. 29.
Breast CSCs were seeded in 96-well plate and treated with Rottlerin, EGCG, embelin, and honokiol for 3 days and cell viability was measured by XTT assay. The results of those studies are illustrated in FIG. 30.

Prostate CSCs [3] = experiment: cell viability by XTT assay; assay type: cell-based, human; details: 3 days; PITC 0-20 μM, BSC 0-20 μM
Method: (§2) (A-B) Pancreatic CSCs were treated with BSC (0-20 μM) and honokiol (0-10 μM); (C-D) Prostate CSCs were treated with PITC (0-20 μM) and BSC (0-20 μM) for 3 days. Cell viability was measured by XTT assay.

Pancreatic CSCs [4] = experiment: cell viability by XTT assay; assay type: cell-based, human; details: 3 days; BSC 0-20 μM, honokiol 0-10 μM
Method: as §2

pancreatic cancer = details: background statement; cited from earlier work
Prostate CSCs [5] = experiment: cell viability, trypan blue, Vi-CELL analyzer; assay type: cell-based, human; details: 3 days
Method: Prostate CSCs were treated with resveratrol (0-20 μM), curcumin (0-20 μM), honokiol (0-20 μM) and diallyl trisulphide (0-10 μM) for 3 days, and cell viability was measured by staining with trypan blue using Vi-CELL analyzer (Beckman Counter).
Prostate CSCs were treated with sulforaphane (0-20 μM), rottlerin (0-5 μM), EGCG (0-40 μM) and embelin (0-1 μM) for 3 days, and cell viability was measured by staining with trypan blue using Vi-CELL analyzer (Beckman Counter).
Prostate CSCs were treated with resveratrol (0-20 μM), curcumin (0-20 μM), honokiol (0-20 μM), and diallyl trisulphide (0-10 μM) for 3 days and cell viability was measured by staining with trypan blue using Vi-CELL analyzer. The results of those studies are illustrated in FIG. 25.
Prostate CSCs were treated with sulforaphane (0-20 μM), rottlerin (0-5 μM), EGCG (0-40 μM), and embelin (0-1 μM) for 3 days and cell viability was measured by staining with trypan blue using Vi-CELL analyzer. The results of those studies are illustrated in FIG. 26.

Brain CSCs [6] = experiment: cell viability, trypan blue, Vi-CELL analyzer; assay type: cell-based; details: 3 days
Method: Brain CSCs were treated with resveratrol (0-20 μM), curcumin (0-20 μM), honokiol (0-20 μM) and diallyl trisulphide (0-10 μM) for 3 days, and cell viability was measured by staining with trypan blue using Vi-CELL analyzer (Beckman Counter).
Brain CSCs were treated with sulforaphane (0-20 μM), rottlerin (0-1 μM), EGCG (0-40 μM) and embelin (0-5 μM) for 48 h, and cell viability was measured by staining with trypan blue using Vi-CELL analyzer (Beckman Counter).
Brain CSCs were treated with resveratrol (0-20 μM), curcumin (0-20 μM) honokiol (0-20 μM), and diallyl trisulphide (0-10 μM) for 3 days and cell viability was measured by staining with trypan blue using Vi-CELL analyzer. The results of those studies are illustrated in FIG. 23.
Brain CSCs were treated with sulforaphane (0-20 μM), rottlerin (0-1 μM), EGCG (0-40 μM), and embelin (0-5 μM) for 48 hours and cell viability was measured by staining with trypan blue using Vi-CELL analyzer. The results of those studies are illustrated in FIG. 24.

Brain CSCs [7] = experiment: cell viability by XTT assay; assay type: cell-based; details: 3 days; 0-20 μM
Method: (A-B) Brain CSCs were treated with sulforaphane (0-20 μM), and honokiol (0-20 μM) for 3 days, and cell viability was measured by XTT assay.

[8] = 48 h, SAHA 3 and 5 μM, 5-Aza-dc 2 and 4 μM

| Compound | cell viability (Breast CSCs) | cell viability (Prostate CSCs [5]) | cell viability (Pancreatic CSCs [1]; 3 days) | cell viability (Brain CSCs [6]) | further results |
| --- | --- | --- | --- | --- | --- |
| Nc1ncn([C@H]2C[C@H](O)[C@@H](CO)O2)c(=O)n1 [5-Aza-dC, 5-Aza-2′-deoxycytidine, reference compound] |  |  |  |  | cell viability (Pancreatic CSCs [1]; [8]): inhibit cell viability; apoptosis (Pancreatic CSCs [2]): promote apoptosis |
| N#C[Se]Cc1ccccc1 [BSC, benzyl selenocyanate] | inhibit cell viability |  |  |  | cell viability (Prostate CSCs [3]): inhibit cell viability; cell viability (Pancreatic CSCs [4]): inhibit cell viability |
| Nc1ccn([C@@H]2O[C@H](CO)[C@@H](O)C2(F)F)c(=O)n1 [Gemcitabine] |  |  |  |  | pancreatic cancer patients in whom the drug is effective (pancreatic cancer): 30%; survival of pancreatic cancer patients (pancreatic cancer): less than 5 years |
| S=C=Nc1ccccc1 [PITC, phenyl isothiocyanate] | inhibit cell viability |  |  |  | cell viability (Prostate CSCs [3]): inhibit cell viability |
| O=C(CCCCCCC(=O)Nc1ccccc1)NO [SAHA, reference compound] |  |  |  |  | cell viability (Pancreatic CSCs [1]; [8]): inhibit cell viability; apoptosis (Pancreatic CSCs [2]): promote apoptosis |
| COc1cc(/C=C/C(=O)CC(=O)/C=C/c2ccc(O)c(OC)c2)ccc1O [curcumin] | inhibit cell viability | inhibit cell viability | inhibit cell viability | inhibit cell viability |  |
| C=CCSSSCC=C [diallyl trisulphide] | inhibit cell viability | inhibit cell viability | inhibit cell viability | inhibit cell viability |  |
| C=CCc1ccc(O)c(-c2ccc(O)c(CC=C)c2)c1 [honokiol] | inhibit cell viability | inhibit cell viability | inhibit cell viability | inhibit cell viability | cell viability (Pancreatic CSCs [4]): inhibit cell viability; cell viability (Brain CSCs [7]): inhibit cell viability |
| Oc1ccc(C=Cc2cc(O)cc(O)c2)cc1 [resveratrol] | inhibit cell viability | inhibit cell viability | inhibit cell viability | inhibit cell viability |  |
